Test results as given in patent US11371055B2, “Herbicide resistance genes” (CORTEVA AGRISCIENCE LLC, priority 2005, dated 2022).

Molecular target: T1, AAD-12 (v2) (Delftia acidovorans, UniProt P83309)
T1 construct: made in house; host or cells: Pseudomonas fluorescens strain MB324 (construct pDAB739)
Assay: Chloropyridinol detection assay (absorbance at 325 nm)
Type: biochemical
From the text: AAD-12 action on potential substrates such as the herbicide triclopyr containing a substituted pyridine (rather than benzene rings) will release a pyridinol on cleavage of the aryloxyalkanoate bond. Pyridinols were not detected using the aminoantipyrine/ferricyanide phenol detection described in the preceding section. […] This was used to create a continuous microplate-based spectrophotometric assay.
All five pyridyloxyalkanoates were cleaved to release pyridinols by AAD-12 (v2). The rates for the oxypropionate substrates 116844 and 91767 were somewhat faster than those for the corresponding acetates (triclopyr and 93833 respectively) indicating a preference of AAD-12 (v2) for oxypropionate over oxyacetate side chains.

T1 sequence (P83309 whole entry, looked up, natural form): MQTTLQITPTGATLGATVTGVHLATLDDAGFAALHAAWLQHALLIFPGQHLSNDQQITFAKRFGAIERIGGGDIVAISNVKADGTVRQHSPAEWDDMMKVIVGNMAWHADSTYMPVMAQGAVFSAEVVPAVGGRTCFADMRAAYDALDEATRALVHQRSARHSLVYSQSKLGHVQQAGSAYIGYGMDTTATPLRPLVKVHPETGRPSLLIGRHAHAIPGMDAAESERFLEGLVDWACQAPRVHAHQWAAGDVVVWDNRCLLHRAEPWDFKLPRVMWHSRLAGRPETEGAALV

In the case of `O=C(O)COc1nc(Cl)c(Cl)cc1Cl` [triclopyr], the “Rate relative to triclopyr” value (6.8 μg AAD-12 (v2), 1 mM substrate) is reported as 1, the “Rate (mAU/min)” value (6.8 μg AAD-12 (v2), 1 mM substrate, 325 nm, background rate 1.4 mAU/min subtracted) is reported as 97 mAU/min and the inhibition at 2000 µM (read-out: Substrate inhibition at 2 mM) is reported as 0%. The “rate of AAD-12 (v2) cleavage relative to that of 2,4-D” value (under maximal velocity conditions) was ~5% and the substrate inhibition (up to 2 mM) was “No substrate inhibition”.
